Entries after “also recorded” stand apart in the source; their conditions may differ.
What was measured:
[1] = tested on: endogenous hsp genes in HeLa-CAT cells; experiment: Expression of endogenous hsps (anti-hsp western blot, 3H-leucine labeling/fluorography); assay type: cell-based, human
Procedure: Cells were scraped of dishes and lysed in buffer C. Aliquots containing equal amounts of cell protein as well as prestained molecular weight markers were applied to 8.5% SDS-PAGE gels. Following electrophoresis, proteins were transferred to Immobilon-P Transfer Membranes (Millipore Corp., Bedford, Mass.), and membranes were blocked by incubation with TBS (25 mM Tris-HCl, pH 8.0, 0.136 M NaCl, 2.7 mM KCl) with 2% nonfat dry milk. Appropriate sections of membranes were incubated with anti-HSF1 polyclonal antibody (Baler, R. et al., Mol. Cell. Biol., 13:2486–2496 (1993)), anti-Hsp antibodies (all from StressGen Biotechnologies Corp., Victoria, B C) or anti-actin antibody (Amersham, Arlington Heights, Ill.). Following three washes with TBS, membranes were reblocked and incubated with second antibody (horseradish peroxidase-conjugated anti-mouse or anti-rabbit IgG (Amersham). After several washes in TBS, membranes were developed using the ECL Western Blot Detection Kit (Amersham).
To avoid the apparent problem with low transfection efficiency altogether, the transfection approach was substituted by an infection approach. The mutHSF cDNA (HSF1(+)) was inserted behind a cytomegalovirus promoter flanked by adenoviral sequences in plasmid vector AC CMV pLpA SR (+). Human 293 cells expressing the adenovirus E1A region genes were co-transfected with plasmid vector lacking an inserted foreign gene or plasmid vector containing mutHSF and plasmid JM17 containing the bulk of adenovirus sequences. By recombination of sequences on the two types of plasmids, adenoviral genomes were created that lacked the EIA region (replication-defective) but contained a cytomegalovirus promoter (control virus) or a cytomegalovirus promoter linked to the mutHSF gene and that were packaged into defective virus particles (mutHSF virus)(See Graham and Prevec, 1991, for a description of the methodology used to create the adenovirus vehicles). Viral plaques were isolated and expanded, and the viral genomes were analyzed by restriction enzyme digestion. Infections with viruses were performed at a multiplicity of infection (MOI) of about 5. Three groups of 50% confluent cultures of HeLa-CAT cells were set up. The first group was infected with mutHSF virus (Ade-HSF1(+)), the second group with control virus (Ade), and the third group received no virus. The three groups of cultures were then incubated for 15, 24 and 36 hours, respectively, and were subsequently harvested. Extracts were prepared as before.
Even synthesis of the typically less inducible hsps such as hsp73 (also known as hsc70) and hsp60 was enhanced. […] The hsp90 antibody used may have detected both the inducible and constitutive forms of hsp90, masking a more dramatic induction of the inducible form. […]

[2] = tested on: human hsp70B promoter-driven chloramphenicol acetyltransferase (CAT) gene; experiment: hsp70B-CAT reporter gene assay in HeLa-CAT cells; assay type: cell-based
Procedure: CAT assays were performed using the chromatographic assay of Gorman, C. M. et al., Mol. Cell. Biol., 2:1044–1051 (1982)). DNA replication was assessed by a standard ^3H-thymidine incorporation assay. In most experiments, including all western blot assays, standardization was based on protein content. All protein determinations were made using the Bradford method. In a few experiments involving sorted cells, standardization was based on cell numbers. All experiments were repeated at least twice, and, in most cases, each data point was derived from assays of 3–5 parallel samples.
To find out whether HSF1(−) could function as a negatively acting factor, HeLa-CAT cells containing integrated copies of an hsp70B-chloramphenicol acetyltransferase (CAT) gene were co-transfected with an HSF1(−) and an EFGP-expressing construct. […] To determine whether elevated Hsp levels induced by heat preconditioning are required for development of tolerance measured as an increased rate of recovery from heat-induced translational arrest, cultures co-transfected with EGFP- and HSF1(−)-expressing constructs or transfected with EGFP-expressing construct only (control cultures) were mildly heat-preconditioned (41° C./1 hour) and, 3 hours later, subjected to a 44° C./30 minutes (severe) heat shock. […] Rates of protein synthesis were assessed by pulse-labeling cells with ^3H-leucine. […]

[3] = 15, 24, 36 hours after infection

| Substance | Hsp90 levels (western blot) [1, 3] | expression of hsp72 and hsp27 (western blot) [1, 3] | synthesis of hsp73 and hsp60 (western blot) [1, 3] | activation of hsp70B-CAT genes in the absence of stress ([2]; no heat shock, listed as mutHSF) | heat-induced Hsp accumulation (anti-Hsp72 western blot) ([1]; 41° C./1 hour heat shock) | heat-induced hsp70B-CAT reporter expression ([2]; 41° C./1 hour heat shock, FACS-isolated cells) |
| --- | --- | --- | --- | --- | --- | --- |
| human HSF1d202–316 [HSF1(+)] | clearly increased | drastically increased | enhanced | equally as well as or better than endogenous HSF1 activated by a moderately severe heat shock; also recorded: strongly activated |  |  |
| human HSF1d453–523 [HSF1(−)] |  |  |  |  | greatly reduced | severely inhibited |

Source: patent US7053052B2, “Therapies involving mutated heat shock transcription factor” (priority 1997, dated 2006)
